Calls of active or inactive are those of the source. The rule behind the calls is not given here.

For one experiment, the species on record is Danio rerio. Put plainly: Inhibition of AB zebrafish early embryo development assessed as delay in epiboly at 2.5 uM after 10 hrs post fertilization by inverted microscopic analysis. Type of experiment: functional, organism-based.
With `C=CCOC(=O)N1c2cc3c(cc2[C@@H]2OC(C)(C)O[C@H]2[C@@H]1CCO)OCO3`, the inhibition result was “Active”.

Take `C=CCOC(=O)N1c2cc3c(cc2[C@@H]2OC(C)(C)O[C@H]2[C@@H]1CCN(Cc1ccc(F)cc1)C(=O)[C@H](CC(C)C)NC(=O)OCC1c2ccccc2-c2ccccc21)OCO3`: the inhibition result was “Active”.

Take `CC[C@H](C)[C@@H]1NC(=O)C[C@H]2[C@@H]3OC(C)(C)O[C@H]3c3cc4c(cc3N2C/C=C\COC1=O)OCO4`: the inhibition result was “Active”.

The next experiment is filed under the species Danio rerio. Put plainly: Antiangiogenic activity in transgenic zebrafish embryo expressing EGFP at 2.5 uM after 36 hrs post fertilization by inverted microscopic analysis. Type of experiment: functional, organism-based.
As for `C=CCOC(=O)N1c2cc3c(cc2[C@@H]2OC(C)(C)O[C@H]2[C@@H]1CCO)OCO3`, the inhibition entry was “Active”. Still for that read-out and setting: the result for `C=CCOC[C@H](Cc1ccccc1)NC(=O)C[C@@H]1Nc2cc3c(cc2[C@@H]2OC(C)(C)O[C@@H]12)OCO3` reads “Active”; that for `CC(C)C[C@@H]1NC(=O)C[C@H]2[C@@H]3OC(C)(C)O[C@H]3c3cc4c(cc3N2C/C=C\COC1=O)OCO4`, “Active”.
